Where “and” joins values, the source holds several entries; their conditions need not be identical. Equal entries are not always repeated. Entries after “also recorded” stand apart in the source; their conditions may differ.
Assays:
E. coli TY1 (DGL430) = assay: Toxicity testing of organic solvents toward E. coli using agar cultures; assay type: cell-based; settings: for % CFU 1 Sample 2 / % CFU Sample 1 / % CFU Sample 3: 5 mL solvent on inoculated LB agar plate, 30° C., CFU as percentage of control plates; for toxicity to E. coli in words: agar plate study
Protocol: This study was done using E. coli TY1 (DGL430), as described in Example 1. A stock culture of this strain was prepared in 50% glycerol and stored at −20° C. This stock culture (10 μL) was used to inoculate a 14 mL Falcon™ tube (BD Biosciences, Bedford, Mass.) containing 5 mL of LB medium, consisting of Bacto-tryptone (10 g/L), Bacto-yeast extract (5 g/L), and NaCL (10 g/L) adjusted to pH 7.5 with NaOH, and supplemented with tetracycline (10 μg/mL). This culture was incubated at 34° C. and 250 rpm overnight in an incubator shaker until an OD600 of between 1.0 and 2.0 was obtained. Dilutions of this culture were spread onto LB agar plates. The appropriate dilution was determined by experimentation to obtain between 100 to 200 colonies per plate. The solvents (5 mL) were filtered through a 0.2 μm filter onto the inoculated agar plates. All the solvents were tested in triplicate.
The plates were incubated overnight at 30° C. in a vented incubator located in a chemical fume hood. The colonies formed were counted after 24 and 48 h. The colony forming units (CFUs) obtained with each solvent were compared to those of the control plates and plotted in FIG. 1 as a percentage versus the log P value for the solvent (P values obtained from Hansch et al., Exploring QSAR: Hydrophobic, Electronic and Steric Constants, American Chemical Society, Washington, D.C., 1995). […] The error bars in the figure represent the range of the data. Cell growth on the agar medium was characterized by the presence of both distinct and non-distinct colony formations, which affected the precision of the colony counts. In the presence of some of the solvents tested, growth continued between 24 and 48 h, while with other solvents, no further growth was observed after 24 h.

[1] = P values obtained from Hansch et al. 1995; cited from earlier work
E. coli strain BNT511 = assay: Effect of organic solvents on the growth of E. coli, shake flasks; assay type: cell-based; settings: for OD 550: 10 mL solvent in 30 mL medium
Excerpt: E. coli strain BNT511 was used in this study. This strain is a tyrosine overproducing strain derived from E. coli strain NST 74 (ATCC No. 31884), which was obtained from the American Type Culture Collection (ATCC) (Manassas, Va.). Strain BNT511 is deposited with the American Type Culture Collection under the terms of the Budapest Treaty on the International Recognition of the Deposit of Microorganisms for the Purposes of Patent Procedure and has been assigned a depository designation of PTA-4314. E. coli strain BNT511 was obtained as follows. A culture of E. coli strain NST 74 was grown overnight at 37° C. in three milliliters of M9 medium, prepared as follows. A solution of M9 salts buffer consisting of KH2PO4 (3 g/L), Na2HPO4 (6 g/L), NaCl (0.5 g/L), and NH4Cl (1 g/L), was prepared and the pH was adjusted to 7.4. This M9 salts buffer was autoclaved and then the following solutions, each sterilized separately by filtration (glucose) or autoclaving, were added to give the concentrations given in parentheses MgSO4 (0.24 g/L), glucose (0.2%), CaCl2 (0.011 g/L), and yeast extract (1 g/L). After growth, the culture was diluted by a factor of 10^3 to 10^6 in M9 salts buffer. Then, 100 μL of each dilution was plated on M9+1% glucose agar containing […] of 3-fluorotyrosine and the plates were incubated at 37° C. After 18 h, growth was observed only on the plate not containing 3-fluorotyrosine. Plates containing 3-fluorotyrosine were incubated an additional 24 h, after which time, several isolates were identified. One NST 74-derived isolate was obtained from each of the 150 and 450 mg/mL 3-fluorotyrosine plates. Individual isolates were propagated on M9+1% glucose agar containing 0, 50, 150, or 250 mg/mL 3-fluorotyrosine. One of these two isolates was designated as BNT511.
E. coli strain BNT511 was grown in a medium containing KH2PO4 (0.15 g/L), Na2HPO4 (0.35 g/L), (NH4)2 SO4 (3 g/L), MgSO4.7H2O (0.3 g/L), yeast extract (0.5 g/L), MOPS (15.6 g/L), and glucose (10 g/L), adjusted to pH 6.8. A seed culture, taken from an active culture that grew in a fermentor and was diluted to 0.3 OD at 550 nm, was used to inoculate 30 mL of culture medium in 250 mL baffled flasks. Ten milliliters of the solvent to be tested, either 1-undecanol (98%, obtained from Aldrich) or 2-undecanone (98%, obtained from Aldrich), was added to the flask and the flasks were incubated at 35° C. and 300 rpm for 22 h in an incubator shaker. A flask without an organic solvent added served as the control. This experiment was run in duplicate. Samples of the aqueous culture media were removed at various times and the pH and the OD550 were measured. As shown by the results given in Table 2, the presence of the organic solvents tested had no significant effect on the growth of E. coli. However, the results obtained with 2-undecanone in these studies were not consistent. […] We believe that this variability was caused by variations in the purity of this solvent.

[2] = Extraction of CA into organic phase, two-phase flask fermentation; assay type: physicochemical
Protocol: The strain used in this study was E. coli WWQ51.1, as described in Example 3. The conditions were similar to those described in Example 3. Eight test cultures were inoculated; six contained 20 mL of 2-undecanone, the other two contained 20 mL of 1-undecanol. A 10% w/v solution of pHS in propylene glycol (0.5 mL), obtained from Sigma-Aldrich, Milwaukee, Wis., was added to two of the cultures containing 2-undecanone, as specified in Table 7.
The cultures were incubated in 250 mL baffled flasks at 35° C. and 300 rpm for 24 h in an incubator shaker. After this time, a sample of the aqueous phase was withdrawn and the pH, OD550, and the concentration of the fermentation products were measured, as described supra. The organic phase was also sampled and the concentration of CA and pHS were determined using HPLC, as described supra.
In this study, the pH decreased to low values and a significant amount of CA was extracted into both organic solvents tested. The amount of pHS produced was low, probably because of its poor stability at low pH. As shown by the data in Table 9, the amount of CA extracted into the organic phase was very dependent on the pH of the medium. This pH dependence results because the fully protonated species is the form extracted into the organic phase. The ionized acid form is very water-soluble and is not extracted into the organic phase. Therefore, the extractive fermentation of acidic compounds such as CA and pHCA is favored at low pH, where the acid exists primarily in the unionized form.

[3] = 2 h, 35° C., 300 rpm, duplicate flasks

SMILES	% CFU 1 Sample 2 (E. coli TY1 (DGL430))	% CFU Sample 1 (E. coli TY1 (DGL430))	% CFU Sample 3 (E. coli TY1 (DGL430))	Log P [1]	toxicity to E. coli in words (E. coli TY1 (DGL430))	other results
CCCCC(=O)c1ccccc1 [1-Phenyl-1-pentanone]	62%	33%	0%	3.33	–	–
CCCCCCCCCCCO [1-undecanol]	–	–	–	–	–	OD 550 (E. coli strain BNT511; [3]): 1.428 and 1.456; OD 550 (E. coli strain BNT511; 4.2 h): 1.96 and 2.14; OD 550 (E. coli strain BNT511; 6 h): 6.02 and 6.7; OD 550 (E. coli strain BNT511; 22 h): 19.1 and 15.7
CCCCCCCCC(C)=O [2-Decanone]	0%	0%	0%	3.39	–	–
CCCCCCCCCCCC(C)=O [2-Tridecanone]	115%	100%	87%	4.95	relatively nontoxic to E. coli	–
CCCCCCCCCC(C)=O [2-undecanone]	11%	11%	11%	3.91	significantly inhibit growth	growth inhibition / toxicity to E. coli of some lots (E. coli strain BNT511; 2-undecanone from some suppliers and lots, ascribed to impurities): found to inhibit growth; also recorded: toxic to E. coli due to impurities; OD 550 (E. coli strain BNT511; [3]): 1.004; OD 550 (E. coli strain BNT511; 4.2 h): 1.88; OD 550 (E. coli strain BNT511; 6 h): 6.3 and 6.28; OD 550 (E. coli strain BNT511; 22 h): 15.2 and 12.3
O=C(O)C=Cc1ccccc1 [CA, cinnamic acid]	–	–	–	–	–	CA Org/CA Aq ([2]; Flask 1, 2-undecanone 20 mL/flask, pH 5.38, 24 h): 3.55; CA Org/CA Aq ([2]; Flask 2, 2-undecanone, pH 4.5): 17.00; CA Org/CA Aq ([2]; Flask 3, 2-undecanone, pH 5.5): 1.43; CA Org/CA Aq ([2]; Flask 4, 2-undecanone, pH 5.4): 2.54; CA Org/CA Aq ([2]; Flask 5, 2-undecanone, pH 4.8): 8.08; CA Org/CA Aq ([2]; Flask 6, 2-undecanone, pH 5.7): 1.10; CA Org/CA Aq ([2]; Flask 7, 1-undecanol, pH 5.7): 2.10; CA Org/CA Aq ([2]; Flask 8, 1-undecanol, pH 5.71): 2.15
c1ccc(COCc2ccccc2)cc1 [Dibenzyl ether]	5%	1.5%	0%	3.1	–	–
CC(C)CCOCCC(C)C [Diisopentyl ether]	39%	13%	0%	3.96	–	–
CCCCCCCCCC(=O)OC [Methyl decanoate]	109%	73%	44%	4.41	relatively nontoxic to E. coli	–
CCCOC(=O)c1ccccc1 [Propyl benzoate]	26%	9%	0.9%	–	–	–

From patent publication US7157256B2, “Method for producing para-hydroxystyrene and other multifunctional aromatic compounds using two-phase extractive fermentation” (E. I. du Pont de Nemours and Company, priority 2003, dated 2007)
